Here are results for one compound from patent US20210401809A1, “PHARMACEUTICAL COMPOUNDS” (Sareum Limited, priority 2016, published 2021).

In series [1] the test system is CCRF-HSB-2 tumours. Briefly: Tumour growth delay study in mice bearing CCRF-HSB-2 tumours (Example 8). The class given is in vivo, male SCID mice. As to conditions: for T/C (test versus control) at the end of the study period: 18 days. How it is done:
(§1) Dosing solutions were prepared on the day of study.

The subject of series [2] is CCRF-HSB-2 cells (TYK2-dependent T-ALL). Briefly: Cell proliferation assay (ATPlite, 7 days). The class given is cell-based. As to conditions: Homo sapiens, CCRF-HSB-2, 168 h. How it is done: (§2) Jurkat, MOLT-4, CCRF-CEM and CCRF-HSB-2 cells are all TYK2-dependent T-ALL cells. Loucy cells are TYK2-independent T-ALL cell lines. Dexamethasone, Etoposide and Paclitaxel were used as positive controls. Compound effects were studied 7 days after compound addition […] Luminescent product was detected using a BMG FLUOstar plate reader. • The data were analysed using a 4-parameter logistic equation in GraphPad Prism.
A general note: In ATP-based viability assays light output follows the ATP content of the culture.

The subject of series [3] is CCRF-CEM cells (TYK2-dependent T-ALL). Briefly: Cell proliferation assay (ATPlite, 7 days). The class given is cell-based. As to conditions: Homo sapiens, 168 h. How it is done: as §2
Series [4] has as its system Loucy cells (TYK2-independent T-ALL). Briefly: Cell proliferation assay (ATPlite, 7 days). As to conditions: 168 h. The class given is cell-based. How it is done:
as §2

The test system of series [5] is Jurkat cells (TYK2-dependent T-ALL). Briefly: Cell proliferation assay (ATPlite, 7 days). The following applies: Homo sapiens, 168 h. The class given is cell-based. How it is done:
as §2

Series [6] has as its system MOLT-4 cells (TYK2-dependent T-ALL). Nature of the series: Cell proliferation assay (ATPlite, 7 days). As to conditions: Homo sapiens, MOLT-4, 168 h. The class given is cell-based. How it is done: as §2
Series [7] in a line: Animal bodyweight in MOLT-4 xenograft study (Example 9). The following applies: 25 and 50 mg/kg BID PO, 21 days. The class given is in vivo, male SCID mice. How it is done: (§3) A total of 50 male SCID mice aged 5-7 weeks were used for the study. These were bred in-house at Axis Bioservices. Animals were housed in IVC cages (up to 5 per cage) with individual mice identified by tail mark. All animals were allowed free access to a standard certified commercial diet and sanitised water during the study. The holding room was maintained under standard conditions: 20-24° C., 40-70% humidity and a 12 h light/dark cycle.
(§4) MOLT-4 cells (1×10^7 in matrigel) were implanted onto the rear dorsum of male SCID mice using a 25-gauge needle. When tumours reached approximately 100-150 mm^3 the mice were randomly assigned to the following treatment groups.
as §1
(§5) The formulation for cyclophosphamide was PBS at a dosing volume of 10 ml/kg based on animal weight on day of dosing.
(§6) For combination dosing, both compounds were dosed at the same time.

The test system of series [8] is PARP cleavage in MOLT-4 cells. Nature of the series: Western blot assay, chronic compound treatment. The class given is cell-based. The following applies: 48 hrs, tested 0.03-3 μM, FIG. 2. How it is done: MOLT-4 cells were treated with Compounds 25 and 29 (of Example 1) and three benchmark inhibitors (GLPG0634 (Filgotinib, developed by Galapagos), TG101209 and GDC-046) as comparative examples at five concentrations (3, 1, 0.3, 0.1 and 0.03 μM), for 48 hrs.
Cell lysates were analysed by Western blot and probed with antibodies against PARP and Actin.
The details of the antibodies used are set out in the table below.
Protocol • Cell were plated in 6-well plates at 4e6 cells per well in 6 ml of media (RPMI+10% FBS) and incubated for at least 1 h at 37° C., 5% CO2. • Cells were treated with the indicated concentrations of compounds for 48 hrs. • Cells were harvested by centrifuging at 12,000 rpm for 1 min (4° C.), washed in ice cold PBS and centrifuged again at 12,000 rpm for 1 min (4° C.). • The supernatant was removed and the cell pellet snap frozen on dry ice. • Cells were lysed in RIPA buffer (with protease and phosphatase inhibitors) and incubated on ice for 30 min. • Cellular debris was pelleted at 13,000 rpm for 5 min at 4° C., supernatant was transferred to a fresh tube. • Protein concentration was estimated using a BCA assay. • 30 μg of protein was loaded onto 4-12% NuPAGE Novex Bis-Tris protein gels (MOPs buffer). • Protein was transferred to a PVDF membrane using dry transfer (iBlot) and western blotting performed against the antigens of interest.
On the technique in general: A western blot detects proteins with antibodies after separation by electrophoresis.

Series [9] deals with MOLT-4 xenografts. Briefly: Tumour growth delay study in mice bearing MOLT-4 xenografts (Example 9). The class given is in vivo, male SCID mice. As to conditions: 21 days. How it is done: as §3, §4, §1, §5, §6
In series [10] the target is T1, JAK1 (Homo sapiens, UniProt P23458).
T1 construct: 866-1154; GST (N); purchased Reaction Biology Corp. (contract assay); host or cells: Baculovirus in Sf21 insect cells
T1 sequence (P23458 866-1154): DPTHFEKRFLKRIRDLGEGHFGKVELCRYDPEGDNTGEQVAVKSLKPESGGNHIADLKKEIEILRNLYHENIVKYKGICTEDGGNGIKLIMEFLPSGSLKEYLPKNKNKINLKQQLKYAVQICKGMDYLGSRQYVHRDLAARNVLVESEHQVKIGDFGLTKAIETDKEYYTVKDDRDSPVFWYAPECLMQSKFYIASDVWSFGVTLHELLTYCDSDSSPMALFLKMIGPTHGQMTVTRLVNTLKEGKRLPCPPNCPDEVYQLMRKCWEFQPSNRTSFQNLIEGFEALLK
Briefly: In vitro enzyme inhibition, 33P-ATP filter kinase assay (Reaction Biology). The class given is biochemical. How it is done: (§7) Compounds of the invention were assayed for their ability to inhibit TYK2 kinase and other JAK kinases.
(§8) Substrates and kinases used in the assays are identified in Table 2 below.
(§9) JAK3tide=[Ac-[…]-NH2]

Series [11] addresses T2, TYK2 kinase (Homo sapiens, UniProt P29597).
T2 construct: 833-1187; GST (N); purchased Reaction Biology Corp. (contract assay); host or cells: Baculovirus in Sf21 insect cells
Described as above. The class given is biochemical. How it is done:
as §7, §8, §9

Series [12] deals with T3, JAK3 (Homo sapiens, UniProt P52333).
T3 construct: 781-1124; GST (N); purchased Reaction Biology Corp. (contract assay); host or cells: Baculovirus in Sf21 insect cells
T3 sequence (P52333 781-1124): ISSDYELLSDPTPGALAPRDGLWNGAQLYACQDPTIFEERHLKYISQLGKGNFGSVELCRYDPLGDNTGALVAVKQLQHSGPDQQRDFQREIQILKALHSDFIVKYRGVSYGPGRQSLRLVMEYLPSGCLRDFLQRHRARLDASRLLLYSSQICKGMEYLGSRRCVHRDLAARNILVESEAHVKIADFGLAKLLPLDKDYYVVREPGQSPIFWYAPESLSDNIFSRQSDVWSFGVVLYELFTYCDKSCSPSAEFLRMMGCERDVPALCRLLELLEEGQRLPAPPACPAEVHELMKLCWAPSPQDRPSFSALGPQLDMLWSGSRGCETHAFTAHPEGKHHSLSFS
The description is as above. The class given is biochemical. How it is done: as §7, §8, §9

The structures appear in SMILES notation.

T2 sequence (P29597 833-1187): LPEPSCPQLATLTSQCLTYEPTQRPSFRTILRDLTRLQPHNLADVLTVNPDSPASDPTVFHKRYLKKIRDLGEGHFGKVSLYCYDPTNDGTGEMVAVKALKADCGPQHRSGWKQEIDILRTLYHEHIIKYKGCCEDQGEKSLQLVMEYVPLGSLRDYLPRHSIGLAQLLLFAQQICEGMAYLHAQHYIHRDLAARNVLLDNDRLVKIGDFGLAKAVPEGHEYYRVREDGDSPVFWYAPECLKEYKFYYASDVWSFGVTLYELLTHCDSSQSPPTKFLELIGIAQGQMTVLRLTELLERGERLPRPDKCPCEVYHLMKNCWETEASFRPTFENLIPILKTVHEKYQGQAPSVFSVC

What is called IC50 is the point on the concentration scale where inhibition reaches its midpoint. Lower therefore signals greater potency in that assay. As for `NC(=O)c1nc(-c2c(Cl)cccc2Cl)oc1Nc1ccc(C(=O)N2CCOCC2)cc1` [Compound 29, 2-(2,6-dichloro-phenyl)-5-[4-(morpholine-4-carbonyl)-phenylamino]-oxazole-4-carboxylic acid amide], the “T/C (test versus control) at the end of the study period” value is 18.1% in series [1] (25 mg/kg BID PO), 10.8% in series [1] (50 mg/kg BID PO), 26.8% in [9] (25 mg/kg BID PO) and 16.6% in series [9] (50 mg/kg BID PO). Also, the “control of CCRF-HSB-2 tumour growth” value in series [1] (25 and 50 mg/kg BID PO, similar inhibition at both doses (p=0.6397), FIG. 8) is recorded as “good efficacy in controlling CCRF-HSB-2 tumour growth”. For the same compound, in [1] (25 and 50 mg/kg BID, p<0.0001, FIG. 9), the “tumour weight at Day 18 versus vehicle only” value is reported as “significantly smaller”. In addition, the 50% inhibitory concentration (IC50) turned out to be 1.4 µM in series [2]; 1.8 µM in [3]; 1.7 µM in series [4]; 0.6 µM in series [5]; 1.2 µM in [6]; 16.8 nM in series [10]. Besides, the figures for the IC50 in [11] and in [12] were 0.617 nM and 90.8 nM, respectively. For the same compound, in [7], the “bodyweight during the study” value is given as “maintained at pre-treatment levels”. The “concentrations at which cleaved PARP is present (apoptosis)” value in series [8] is no less than 3 µM.
